From patent publication US20250108123A1, “COMPOUND-LINKER […] COMPOUNDS USEFUL AS STING AGONISTS AND USES THEREOF” (priority 2021, published 2025)
Like-named read-outs stand apart in the source and are kept apart here.

Target: human STING WT (Homo sapiens (Human), UniProt Q86WV6)
Test: biochemical
Assay type: binding
Description: Cisbio Bioassays' human STING WI binding assay (#64BDSTGPEG & 64BDSTGPEH, Cisbio) is for quantitative measurement of human STING WI ligand using HTRF® technology.
Negative control: Dispense 5 μL of diluent into each negative control well. Standard: Dispense 5 μL of each Human STING WI Standard 2′3′-cGAMP (Std 0-Std 7) into each standard well. Compound: Dispense 5 μL of compound into each compound well.
Negative control: Add 5 μL of detection buffer to all wells. Other wells: Add 5 μL of human STING WT protein 6His-tagged protein to all wells.
Add 10 μL of premixed STING WT ligand d2 reagent and 6His Tb antibody working solution to all wells.
Seal the plate and incubate 3 hours at RT or at Over Night if necessary.
Remove the plate sealer and read on an HTRF® compatible reader (PerkinElmer, USA). Results were analyzed with a two-wavelength signal ratio: intensity (665 nm)/intensity (620 nm).
Cisbio Bioassays' human STING WT binding assay (#64BDSTGPEG & 64BDSTGPEH, Cisbio) is for quantitative measurement of human STING WT ligand using HTRF® technology.
Negative control: Dispense 5 μL of diluent into each negative control well. Standard: Dispense 5 μL of each Human STING WT Standard 2′3′-cGAMP (Std 0—Std 7) into each standard well. Compound: Dispense 5 μL of compound into each compound well.
[formula] • Fit the data in GraphPad to obtain IC50 values using equation (2)

[1] = HTRF, human STING WT 6His-tagged protein, incubation 3 hours at RT, read-out: hSTING WT binding IC50/nM
[2] = human STING WT, HTRF binding assay, read-out: hSTING WT binding IC50

human STING WT, sequence (Q86WV6 whole entry): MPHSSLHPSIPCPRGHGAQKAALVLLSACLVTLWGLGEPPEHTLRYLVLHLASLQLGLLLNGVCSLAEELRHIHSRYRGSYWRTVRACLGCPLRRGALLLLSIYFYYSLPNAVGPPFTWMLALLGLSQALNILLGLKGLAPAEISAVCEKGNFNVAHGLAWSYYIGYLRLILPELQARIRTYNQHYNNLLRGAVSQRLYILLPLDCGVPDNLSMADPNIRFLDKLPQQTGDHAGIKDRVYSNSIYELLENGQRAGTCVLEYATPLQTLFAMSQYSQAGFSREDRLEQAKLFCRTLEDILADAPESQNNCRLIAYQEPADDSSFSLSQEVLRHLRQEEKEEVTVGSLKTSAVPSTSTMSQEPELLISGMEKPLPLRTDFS

| SMILES | IC50 [1] | other results |
| --- | --- | --- |
| COc1cc2c(cc1OCCCOc1nc3cc(C(=O)CCC(=O)O)sc3cc1OC)CN(C(=O)CCC(=O)O)C2 [II-8, sodium 4-(5-(3-((2-(3-carboxylatopropanoyl)-6-methoxyisoindolin-5-yl)oxy)propoxy)-6-methoxythieno[3,2-b]pyridin-2-yl)-4-oxobutanoate] | – | IC50 [2]: 1.04 nM |
| COc1cc2c(cc1OCCCOc1cc3cc(C(=O)CCC(=O)O)sc3cc1Br)CN(C(=O)CCC(=O)O)C2 [II-9, 4-(5-(3-((6-bromo-2-(3-carboxypropanoyl)benzo[b]thiophen-5-yl)oxy)propoxy)-6-methoxyisoindolin-2-yl)-4-oxobutanoic acid] | – | IC50: 0.65 nM |
| COc1cc2c(cc1OCCCOc1cc3cc(C(=O)CCC(=O)O)sc3cc1O)CN(C(=O)CCC(=O)O)C2 [II-7, sodium 4-(5-(3-((2-(3-carboxylatopropanoyl)-6-hydroxybenzo[b]thiophen-5-yl)oxy)propoxy)-6-methoxyisoindolin-2-yl)-4-oxobutanoate] | – | IC50: 0.36 nM |
| C=C(COc1c(OC)cc2c(c1Cl)CN(C(=O)CCC(=O)O)C2)COc1c(OC)cc2sc(C(=O)CCC(=O)O)cc2c1F [II-16, 4-(5-((2-(((2-(3-carboxypropanoyl)-4-chloro-6-methoxyisoindolin-5-yl)oxy)methyl)allyl)oxy)-4-fluoro-6-methoxybenzo[b]thiophen-2-yl)-4-oxobutanoic acid] | – | IC50 [2]: > 150 nM |

Continued, in another order:

| IC50 [1] | SMILES | other results |
| --- | --- | --- |
| > 150 nM | C=C(COc1c(OC)cc2c(c1Cl)CN(C(=O)CCC(=O)O)C2)COc1c(OC)cc2c(c1Cl)CN(C(=O)CCC(=O)O)C2 [Example I-11, 4,4′-(((2-methylenepropane-1,3-diyl)bis(oxy))bis(4-chloro-6-methoxyisoindoline-5,2-diyl))bis(4-oxobutanoic acid)] | – |
| > 150 nM | COc1cc2c(cc1OCCCOc1c(OC)cc3c(c1Cl)CN(C(=O)CCC(=O)O)C3)CN(C(=O)CCC(=O)O)C2 [Example I-8, 4-(5-(3-((2-(3-carboxypropanoyl)-4-chloro-6-methoxyisoindolin-5-yl)oxy)propoxy)-6-methoxyisoindolin-2-yl)-4-oxobutanoic acid] | – |
| > 150 nM | COc1cc2c(c(Cl)c1OCCCOc1c(OC)cc3c(c1Cl)CN(C(=O)CCC(=O)O)C3)CN(C(=O)CCC(=O)O)C2 [Example I-12, 4,4′-((propane-1,3-diylbis(oxy))bis(4-chloro-6-methoxyisoindoline-5,2-diyl))bis(4-oxobutanoic acid)] | – |
| > 150 nM | COc1cc2c(cc1CN(C)Cc1cc3c(cc1OC)CN(C(=O)CCC(=O)O)C3)CN(C(=O)CCC(=O)O)C2 [Example I-7, 4,4′-(((methylazanediyl)bis(methylene))bis(6-methoxyisoindoline-5,2-diyl))bis(4-oxobutanoic acid)] | – |
